Laboratory results reported in the NIST ThermoML archive (doi:10.1021/je2012633).

How the values were obtained:
[1] = 101 kPa, Liquid, Vibrating tube method
[2] = xn = mol fraction of the nth substance listed; details: 101 kPa, Liquid, Vibrating tube method

CCOS(=O)(=O)[O-].CCn1cc[n+](C)c1 [1-ethyl-3-methylimidazolium ethyl sulfate]
[1]
Details | mass density [kg/m3]
288.15 K | 1245.3
298.15 K | 1238.3
308.15 K | 1231.6
318.15 K | 1224.9

CCCCCCCCOS(=O)(=O)[O-].CCn1cc[n+](C)c1 [1-ethyl-3-methylimidazolium octyl sulfate]
[1]
Details | mass density [kg/m3]
288.15 K | 1100.7
298.15 K | 1093.8
308.15 K | 1087
318.15 K | 1080.5

CCCCCCOS(=O)(=O)[O-].CC[n+]1ccn(C)c1 [3-ethyl-1-methyl-1H-imidazolium hexyl sulfate]
[1]
Details | mass density [kg/m3]
288.15 K | 1136.6
298.15 K | 1129.6
308.15 K | 1123.1
318.15 K | 1116.6

CCCCOS(=O)(=O)[O-].CC[n+]1ccn(C)c1 [3-ethyl-1-methylimidazolium butyl sulfate]
[1]
Details | mass density [kg/m3]
288.15 K | 1182.5
298.15 K | 1175.7
308.15 K | 1169
318.15 K | 1162.4

CCCCOS(=O)(=O)[O-].CC[n+]1ccn(C)c1 [3-ethyl-1-methylimidazolium butyl sulfate] + CCO
mass density [kg/m3], [2]
Details | 288.15 K | 298.15 K | 308.15 K | 318.15 K
x1 = 0.0498 | 864.5 | 856.2 | 847.9 | 839.5
x1 = 0.0989 | 915.1 | 907.1 | 898.9 | 890.9
x1 = 0.1938 | 987 | 979.3 | 971.6 | 963.8
x1 = 0.2904 | 1037.4 | 1030 | 1022.4 | 1014.8
x1 = 0.3812 | 1072.1 | 1064.8 | 1057.6 | 1050.4
x1 = 0.4691 | 1098.2 | 1091 | 1083.9 | 1076.9
x1 = 0.4993 | 1105.9 | 1098.8 | 1091.1 | 1083.7
x1 = 0.5699 | 1122 | 1114.9 | 1107.9 | 1101
x1 = 0.6866 | 1143.7 | 1136.7 | 1129.7 | 1122.8
x1 = 0.7858 | 1158.4 | 1151.6 | 1144.7 | 1138
x1 = 0.8794 | 1169.9 | 1163.1 | 1156.3 | 1149.6
x1 = 1 | 1182.5 | 1175.7 | 1169 | 1162.4

CCCCOS(=O)(=O)[O-].CC[n+]1ccn(C)c1 [3-ethyl-1-methylimidazolium butyl sulfate] + O
mass density [kg/m3], [2]
Details | 288.15 K | 298.15 K | 308.15 K | 318.15 K
x1 = 0.0526 | 1081 | 1075.8 | 1069.6 | 1063.2
x1 = 0.0987 | 1114.3 | 1107.5 | 1100.5 | 1093.4
x1 = 0.2007 | 1146.1 | 1139.1 | 1131.9 | 1124.7
x1 = 0.2973 | 1159.3 | 1152.3 | 1145.3 | 1138.3
x1 = 0.3957 | 1167.2 | 1160.2 | 1153.2 | 1146.3
x1 = 0.4866 | 1171.7 | 1164.8 | 1158 | 1151.1
x1 = 0.5868 | 1175 | 1168.4 | 1161.5 | 1154.7
x1 = 0.6909 | 1177.9 | 1171.1 | 1164.3 | 1157.6
x1 = 0.7872 | 1179.6 | 1172.9 | 1166.2 | 1159.5
x1 = 0.8922 | 1181.4 | 1174.5 | 1167.9 | 1161.2
x1 = 0.9416 | 1181.8 | 1175 | 1168.3 | 1161.7
x1 = 1 | 1182.5 | 1175.7 | 1169 | 1162.4

CCO [ethanol]
[1]
Details | mass density [kg/m3]
288.15 K | 794.4
298.15 K | 785.8
308.15 K | 777.1
318.15 K | 768.3

CCO [ethanol] + CCOS(=O)(=O)[O-].CCn1cc[n+](C)c1
[2], x2 = 0
Details | mass density [kg/m3]
288.15 K | 794.4
298.15 K | 785.8
308.15 K | 777.1
318.15 K | 768.3

O [water] + CCCCCCOS(=O)(=O)[O-].CC[n+]1ccn(C)c1
Details | mass density [kg/m3]
[2], 308.15 K, x2 = 0 | 994.1

O [water] + CCOS(=O)(=O)[O-].CCn1cc[n+](C)c1
Details | mass density [kg/m3]
[2], 308.15 K, x2 = 0 | 994.1
